Results published in patent publication US20260365656A1, “PYRAZOLE DERIVATIVE, AND PHARMACEUTICALLY ACCEPTABLE SALT, STEREOISOMER, PHARMACEUTICAL COMPOSITION AND USE THEREOF” (STARG (WUHAN) PHARMACEUTICAL TECHNOLOGY CO., LTD, priority 2023, published 2026).
Structures can show the parent of a compound that is named as a salt.

Assays:
[1] = Pharmacokinetic Study of Test Compounds Administered Orally and Intravenously in Mice; type: in vivo, mouse (ICR, male); details: ICR mice
Description: Experimental Example 5: Pharmacokinetic Study of Test Compounds Administered Orally and Intravenously in Mice
This study used ICR male mice as test animals. The plasma concentrations of the test compounds and the reference compound in mice were quantitatively determined at different time points using the LC-MS/MS method following intravenous injection or oral administration to evaluate the pharmacokinetic characteristics of the test compounds in mice.
ICR mice (male, 20-30 g, 6-8 weeks old, Beijing Charles River).
A clear solution of the test compound was administered to ICR mice (fasted overnight or fed) via tail vein injection or oral gavage. For intravenous injection, blood samples (50 μL) were collected via cheek puncture at 0 h (pre-dose) and at 0.083, 0.25, 0.5, 1, 2, 4, 6, 8, and 24 h post-dose into anticoagulant tubes containing sodium heparin. The mixtures were thoroughly vortexed at 4 °C and centrifuged at 6000 rpm for 3 minutes. For oral gavage, blood samples were collected via cheek puncture at 0 h (pre-dose) and at 0.083, 0.25, 1, 2, 4, 6, 8, and 24 h post-dose into anticoagulant tubes containing sodium heparin. The mixtures were vortexed thoroughly, and centrifuged at 6000 rpm for 3 minutes. Plasma drug concentrations were determined using the LC-MS/MS method. Pharmacokinetic parameters were calculated using Phoenix WinNonlin 8.2.0 pharmacokinetic software with a non-compartmental model and linear-logarithmic trapezoidal rule.

CDK1/cyclin B1 = molecular target: T1, CDK1/cyclin B1 (Homo sapiens, UniProt P06493); test: In Vitro CDK1/Cyclin B1 Enzyme Activity Assay (TR-FRET); type: biochemical; details: in words
T1 construct: purchased Carna Biosciences
T1 sequence (P06493 whole entry): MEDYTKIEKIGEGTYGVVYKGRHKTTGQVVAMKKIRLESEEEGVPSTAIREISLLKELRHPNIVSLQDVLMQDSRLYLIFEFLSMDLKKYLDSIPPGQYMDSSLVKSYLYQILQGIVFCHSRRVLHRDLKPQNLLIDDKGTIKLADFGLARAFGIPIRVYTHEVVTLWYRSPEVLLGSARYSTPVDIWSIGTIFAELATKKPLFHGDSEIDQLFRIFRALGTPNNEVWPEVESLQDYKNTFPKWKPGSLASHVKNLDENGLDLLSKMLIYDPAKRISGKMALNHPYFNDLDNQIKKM
T1 sequence (P14635 whole entry partner): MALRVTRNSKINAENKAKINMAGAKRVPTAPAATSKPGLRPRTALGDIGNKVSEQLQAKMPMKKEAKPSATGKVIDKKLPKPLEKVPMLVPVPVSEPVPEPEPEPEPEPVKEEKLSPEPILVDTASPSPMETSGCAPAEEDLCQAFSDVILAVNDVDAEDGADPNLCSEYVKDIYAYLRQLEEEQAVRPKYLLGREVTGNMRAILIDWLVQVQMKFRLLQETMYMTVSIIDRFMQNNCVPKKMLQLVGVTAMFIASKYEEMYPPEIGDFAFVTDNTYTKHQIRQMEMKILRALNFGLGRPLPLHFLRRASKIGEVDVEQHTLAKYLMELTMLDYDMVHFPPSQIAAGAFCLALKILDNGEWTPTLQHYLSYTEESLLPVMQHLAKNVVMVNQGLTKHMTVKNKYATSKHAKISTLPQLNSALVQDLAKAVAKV
Experimental: Experimental Example 2: In Vitro CDK1/Cyclin B1 Enzyme Activity Assay
CDK1/cyclin B1 was purchased from Carna Biosciences. Ulight-4E-BP1 peptide, Eu-anti-phospho-tyrosine antibody, and 1× detection buffer were purchased from PerkinElmer. High-purity ATP was purchased from Promega. EDTA was purchased from Sigma. Nivo multimode plate reader (PerkinElmer) was used.
Preparation of Kinase Buffer Solution: The kinase buffer solution consisted 50 mM HEPES, 1 mM EDTA, 10 mM MgCl2, and 0.01% Brij-35, with pH of 7.4. 2.38 g HEPES, 58 mg EDTA, 406 mg MgCl2, and 20 mg Brij-35 were added to 200 mL buffer, and the pH was adjusted to 7.4.
The stop solution was prepared by mixing 100 μL of 1 M EDTA stock solution with 0.625 μL of 1× detection buffer solution and 1725 μL of distilled water.
The enzyme, Ulight-4E-BP1 peptide, ATP, and the inhibitor were diluted using the kinase buffer solution.
The Eu-anti-phospho-tyrosine antibody was diluted to a concentration of 8 nM/L using the detection buffer solution.
The test compound was serially diluted 5-fold using a multichannel pipette to the 8th concentration, i.e., from 4 μM to 0.0512 nM. The final concentration of DMSO was 4%, and the experiment was set up with duplicate wells. 2.5 μL of each gradient concentration of the inhibitor, 5 μL of CDK1/cyclin B1 enzyme (0.5 ng), and 2.5 μL of a mixture of substrate and ATP (4 mM ATP, 200 nM Ulight-4E-BP1 peptide) were added to a microplate, resulting in a final concentration gradient of the compound from 1 μM to 0.0128 nM, with final ATP and substrate concentrations of 1 mM and 50 nM, respectively. The reaction system was incubated at 25 °C for 60 minutes. After the reaction, 5 μL of the stop solution was added to each well, and further reacted at 25 °C for 5 minutes to terminate the reaction. Then 5 μL of Eu-anti-phospho-tyrosine antibody dilution was added to each well, and the mixture was incubated at 25 °C for 60 minutes. Data were collected using the PerkinElmer Nivo multimode plate reader in TR-FRET mode (excitation wavelength: 320 nm; emission wavelengths: 615 nm and 665 nm).
The raw data were converted to inhibition rates using the equation (Sample−Min)/(Max−Min)×100%. The IC50 value was obtained by fitting the data to a four-parameter curve (using log(inhibitor) vs. response—Variable slope model in GraphPad Prism). Table 1 provides the enzyme inhibitory activity of the compounds of the present application against CDK1/cyclin B1.

COCc1cc(C(=O)Nc2cc([C@H]3CC[C@@H](OC(=O)NC(C)C)C3)[nH]n2)n(C)n1 [PF-07104091]
Apparent volume of distribution Vdss ([1]; intravenous, 5 mg/Kg): 11.8 L/kg
Area under plasma concentration-time curve AUC0-last ([1]; intravenous, 5 mg/Kg): 1645 ng·h/mL
Clearance CL ([1]; intravenous, 5 mg/Kg): 50.3 mL/min/kg
Half-life T1/2 ([1]; intravenous, 5 mg/Kg): 2.68 h
Bioavailability F ([1]; oral 30 mg/Kg vs intravenous 5 mg/Kg): 76.2%
Area under plasma concentration-time curve AUC0-last ([1]; oral, 30 mg/Kg): 7524 ng·h/mL
Peak concentration Cmax ([1]; oral, 30 mg/Kg): 6317 ng/mL
Time to peak Tmax ([1]; oral, 30 mg/Kg): 15 min

CON(C)Cc1nn2ccnc(Nc3cc([C@H]4CC[C@@H](OC(=O)NC(C)C)C4)[nH]n3)c2c1C [Formate salt of compound 2]
selectivity for CDK2 over CDK1 compared to PF-07104091 (CDK1/cyclin B1): superior selectivity compared to PF-07104091

CONCc1nn2ccnc(Nc3cc([C@H]4CC[C@@H](OC(=O)NC(C)C)C4)[nH]n3)c2c1F [Compound 5]
selectivity for CDK2 over CDK1 compared to PF-07104091 (CDK1/cyclin B1): superior selectivity compared to PF-07104091

CNOCc1nn2ccnc(Nc3cc([C@H]4CC[C@@H](OC(=O)NC(C)C)C4)[nH]n3)c2c1F [Hydrochloride salt of Compound 7]
selectivity for CDK2 over CDK1 compared to PF-07104091 (CDK1/cyclin B1): superior selectivity compared to PF-07104091

CNOCc1nn2ccnc(Nc3cc([C@H]4CC[C@@H](OC(=O)NC(C)C)C4)[nH]n3)c2c1C [Hydrochloride salt of compound 3]
selectivity for CDK2 over CDK1 compared to PF-07104091 (CDK1/cyclin B1): superior selectivity compared to PF-07104091

CONCc1nn2ccnc(Nc3cc([C@H]4CC[C@@H](OC(=O)NC(C)C)C4)[nH]n3)c2c1C [Formate salt of compound 1]
selectivity for CDK2 over CDK1 compared to PF-07104091 (CDK1/cyclin B1): superior selectivity compared to PF-07104091

CON(C)Cc1nn2ccnc(Nc3cc([C@H]4CC[C@@H](OC(=O)NC(C)C)C4)[nH]n3)c2c1F [Compound 6]
selectivity for CDK2 over CDK1 compared to PF-07104091 (CDK1/cyclin B1): superior selectivity compared to PF-07104091
